Paper PMC4774972, “Activity and Predicted Nephrotoxicity of Synthetic Antibiotics Based on Polymyxin B” (Journal of Medicinal Chemistry, 2016)
Converted amounts (≈) assume the structure as drawn. Bridge positions count the residues as written; N and C are the ends. Square brackets hold non-standard residues; d marks the D form. Peptide text beside a SMILES is read from it. * marks the point of attachment. Bip = N[C@@H](Cc1ccc(-c2ccccc2)cc1)C(=O)O; dBip = N[C@H](Cc1ccc(-c2ccccc2)cc1)C(=O)O; Gly(octyl) = CCCCCCCC[C@H](N)C(=O)O; Octanoyl = CCCCCCCC(=O)*; Dab = NCC[C@H](N)C(=O)O

Tests used:
[1] = tested on: K. pneumoniae CI 138-16357-20362, PmxR; experiment: microbe, parasite or virus in culture; type: cell-based, Klebsiella pneumoniae; conditions: carbapenem & polymyxin resistant clinical isolate; MHB, 5 × 10^5 CFU/mL, 18 h at 37 °C
Experimental: (§1) Bacteria were either obtained from American Type Culture Collection (ATCC; Manassas, VA, USA) or independent academic clinical isolate collections, as listed in Table S2. Bacteria were cultured in nutrient broth (NB; Bacto Laboratories, catalog no. 234000) or Muller Hinton broth (MHB; Bacto Laboratories, catalog no. 211443) at 37 °C overnight with shaking (∼180 rpm). A sample of each culture was then diluted 50-fold in fresh MHB and incubated at 37 °C for 1.5–3 h with shaking (∼180 rpm). Compound stock solutions were prepared as 0.64 or 2.56 mg/mL in water. The compounds, at twice the final desired concentration, were serially diluted 2-fold across the wells of 96-well plates (Polystyrene, Corning, catalogue No. 3370). Mid log phase bacterial cultures (after 1.5–3 h incubation) were diluted to a final concentration of 5 × 10^5 colony forming units (CFU)/mL, and 50 μL was added to each well giving a final compound concentration range of 32 μg/mL to 0.015 μg/mL (128–0.06 μg/mL for colistin and polymyxin B against the polymyxin resistant clinical isolates). MICs were determined visually after 18 h of incubation at 37 °C, with the MIC defined as the lowest compound concentration at which no bacterial growth was visible.
(§2) Table S2. Bacterial strains used for Minimum Inhibitory Concentration (MIC) […]
(§3) Organism Strain Strain description Strain Source
(§4) Escherichia coli ATCC 25922 FDA strain Seattle 1946 ATCC
(§5) Klebsiella pneumoniae ATCC 13883 Control strain ATCC
(§6) Klebsiella pneumoniae ATCC 700603 Multi-drug resistant ATCC
(§7) Klebsiella pneumoniae BAA-2146 Metallo-beta-lactamase- ATCC
(§8) Acinetobacter baumannii ATCC 19606 Type strain ATCC
(§9) Pseudomonas aeruginosa ATCC 27853 Type strain ATCC
(§10) Pseudomonas aeruginosa FADDI-PA070 Clinical isolate, Nation and Li labs, polymyxin resistant Monash University
(§11) Clinical isolate, Wang Hengzhuang, Pseudomonas aeruginosa PA9704 polymyxin resistant University Hospital of […]
(§12) Ptyela Clinical isolate, Ilias Karaiskos and Acinetobacter baumannii Carbapenem & Helen Giamarellou
(§13) Clinical isolate, Medicine, Hygeia
(§14) Klebsiella pneumoniae Koprana Carbapenem, & General Hospital, […]
(§15) Clinical isolate, (Instituto Dante […]
(§16) polymyxin resistant Cardiologia, São […]

[2] = tested on: K. pneumoniae CI Koprana 100650661:1, PmxR; experiment: microbe, parasite or virus in culture; type: cell-based, Klebsiella pneumoniae; conditions: carbapenem & polymyxin resistant clinical isolate; MHB, 5 × 10^5 CFU/mL, 18 h at 37 °C
Experimental: as §1, §2, §3, §4, §5, §6, §7, §8, §9, §10, §11, §12, §13, §14, §15, §16

[3] = tested on: S. aureus ATCC 25923, MSSA; conditions: MIC S. aureus ATCC 25923, MSSA (µg/mL)
[4] = tested on: K. pneumoniae CI 138-16357-20362, PmxR; conditions: MIC K. pneumoniae CI 138-16357-20362, PmxR (µg/mL)
[5] = tested on: K. pneumoniae CI Koprana 100650661:1, PmxR; conditions: MIC K. pneumoniae CI Koprana 100650661:1, PmxR (µg/mL)
[6] = tested on: A. baumannii CI Ptyela 100734512:2, PmxR; conditions: MIC A. baumannii CI Ptyela 100734512:2, PmxR (µg/mL)
[7] = tested on: P. aeruginosa PA9704, PmxR; conditions: MIC P. aeruginosa PA9704, PmxR (µg/mL)
[8] = tested on: P. aeruginosa FADDI-PA070, PmxR; conditions: MIC P. aeruginosa FADDI-PA070, PmxR (µg/mL)
[9] = tested on: HepG2; conditions: CC50 HepG2 (µM)
[10] = tested on: K. pneumoniae ATCC 13883; conditions: MIC K. pneumoniae ATCC 13883 (µg/mL)

Compound | MIC K. pneumoniae CI 138-16357-20362, PmxR [1] [µg/mL] | MIC K. pneumoniae CI Koprana 100650661:1, PmxR [2] [µg/mL] | MIC [3] [µg/mL] | MIC [4] [µg/mL] | MIC [5] [µg/mL] | MIC [6] [µg/mL] | MIC [7] [µg/mL] | MIC [8] [µg/mL] | CC50 [9] [µM] | MIC [10] [µg/mL]
CCCCCCCC(=O)N[C@@H](CCN)C(=O)N[C@H](C(=O)N[C@@H](CCN)C(=O)N[C@H]1CCNC(=O)[C@H]([C@@H](C)O)NC(=O)[C@H](CCN)NC(=O)[C@H](Cc2ccc(N)cc2)NC(=O)[C@H](CC(C)C)NC(=O)[C@@H](Cc2ccccc2)NC(=O)[C@H](CCN)NC1=O)[C@@H](C)O [Compound 25] | >32 | >32 | > 32 | > 32 | > 32 | > 32 | > 32 |  |  | 
CCCCCCCC(=O)N[C@@H](CCN)C(=O)N[C@H](C(=O)N[C@@H](CCN)C(=O)N[C@H]1CCNC(=O)[C@H]([C@@H](C)O)NC(=O)[C@H](CCNC(=O)[C@@H](N)CCC(=O)O)NC(=O)[C@H](CCN)NC(=O)[C@H](CC(C)C)NC(=O)[C@@H](Cc2ccccc2)NC(=O)[C@H](CCN)NC1=O)[C@@H](C)O [Compound 19] (Octanoyl-[Dab]T[Dab][Dab][Dab][dF]L[Dab][Dab](Glu)T; lactam 4-C) | >32 | >32 | > 32 | > 32 | > 32 | > 32 | > 32 | > 32 | > 300 | 
CCCCCCCC[C@@H]1NC(=O)[C@@H](Cc2ccccc2)NC(=O)[C@H](CCN)NC(=O)[C@@H](NC(=O)[C@H](CCN)NC(=O)[C@@H](NC(=O)[C@H](CCN)NC(=O)CCCCCCC)[C@@H](C)O)CCNC(=O)[C@H]([C@@H](C)O)NC(=O)[C@H](CCN)NC(=O)[C@H](CCN)NC1=O (Octanoyl-[Dab]T[Dab][Dab][Dab][dF][Gly(octyl)][Dab][Dab]T; lactam 4-C) |  |  | 8 (≈ 6.42 µM) | 32 (≈ 25.7 µM) | 32 (≈ 25.7 µM) | 8 (≈ 6.42 µM) | 8 (≈ 6.42 µM) | 16 (≈ 12.8 µM) | 116 | 
CCCCCCCC(=O)N[C@@H](CCN)C(=O)N[C@H](C(=O)N[C@@H](CCN)C(=O)N[C@H]1CCNC(=O)[C@H]([C@@H](C)O)NC(=O)[C@H](CCNC(=O)[C@@H](N)CCCNC(=N)N)NC(=O)[C@H](CCN)NC(=O)[C@H](CC(C)C)NC(=O)[C@@H](Cc2ccccc2)NC(=O)[C@H](CCN)NC1=O)[C@@H](C)O [Compound 18] (Octanoyl-[Dab]T[Dab][Dab][Dab][dF]L[Dab][Dab](Arg)T; lactam 4-C) | >32 | >32 | > 32 | > 32 | > 32 | > 32 | > 32 | > 32 | > 300 | 
CCCCCCCC(=O)N[C@@H](CCN)C(=O)N[C@H](C(=O)N[C@@H](CCN)C(=O)N[C@H]1CCNC(=O)[C@H]([C@@H](C)O)NC(=O)[C@H](CCN)NC(=O)[C@H](CCN)NC(=O)[C@H](Cc2ccc(-c3ccccc3)cc2)NC(=O)[C@@H](Cc2ccccc2)NC(=O)[C@H](CCN)NC1=O)[C@@H](C)O (Octanoyl-[Dab]T[Dab][Dab][Dab][dF][Bip][Dab][Dab]T; lactam 4-C) |  |  |  | > 32 |  |  |  |  | 117 | 
CCCCCCCC(=O)N[C@@H](CCN)C(=O)N[C@H](C(=O)N[C@@H](CCN)C(=O)N[C@H]1CCNC(=O)[C@H]([C@@H](C)O)NC(=O)[C@H](CCN)NC(=O)[C@H](CCN)NC(=O)[C@H](CC(C)C)NC(=O)[C@@H](Cc2ccc(-c3ccccc3)cc2)NC(=O)[C@H](CCN)NC1=O)[C@@H](C)O (Octanoyl-[Dab]T[Dab][Dab][Dab][dBip]L[Dab][Dab]T; lactam 4-C) |  |  |  |  |  |  |  |  | 119 | 
CCCCCCCC(=O)N[C@@H](CCN)C(=O)N[C@H](C(=O)N[C@@H](CCN)C(=O)N[C@H]1CCNC(=O)[C@H]([C@@H](C)O)NC(=O)[C@H](CCN)NC(=O)[C@H](CCNC(=O)[C@@H](N)CCCNC(=N)N)NC(=O)[C@H](CC(C)C)NC(=O)[C@@H](Cc2ccccc2)NC(=O)[C@H](CCN)NC1=O)[C@@H](C)O [Compound 22] | >32 | >32 | > 32 | > 32 | > 32 | > 32 | > 32 | > 32 |  | 
CCCCCCCC(=O)N[C@@H](CCN)C(=O)N[C@H](C(=O)N[C@H](CO)C(=O)N[C@H]1CCNC(=O)[C@H]([C@@H](C)O)NC(=O)[C@H](CCN)NC(=O)[C@H](CCN)NC(=O)[C@H](CC(C)C)NC(=O)[C@@H](Cc2ccccc2)NC(=O)[C@H](CCN)NC1=O)[C@@H](C)O [Compound 37] (Octanoyl-[Dab]T[dS][Dab][Dab][dF]L[Dab][Dab]T; lactam 4-C) | >32 | >32 | > 32 | > 32 | > 32 | > 32 | > 32 | > 32 | > 300 | 
CCCCCCCC(=O)N[C@H](C(=O)N[C@@H](CCN)C(=O)N[C@H]1CCNC(=O)[C@H]([C@@H](C)O)NC(=O)[C@H](CCN)NC(=O)[C@H](CCN)NC(=O)[C@H](CC(C)C)NC(=O)[C@@H](Cc2ccccc2)NC(=O)[C@H](CCN)NC1=O)[C@@H](C)O [Compound 12] (Octanoyl-T[Dab][Dab][Dab][dF]L[Dab][Dab]T; lactam 3-C) | >32 | >32 | > 32 | > 32 | > 32 | > 32 | > 32 | > 32 | > 300 | 
CCCCCCCC(=O)N[C@@H](CCN)C(=O)N[C@H](C(=O)N[C@@H](CCN)C(=O)N[C@H]1CCNC(=O)[C@H]([C@@H](C)O)NC(=O)[C@H](CCN)NC(=O)[C@H](CCN)NC(=O)[C@H](CC(C)C)NC(=O)[C@@H](Cc2ccccc2)NC(=O)[C@H](CCNC(=O)[C@@H](N)CCCNC(=N)N)NC1=O)[C@@H](C)O [Compound 31] (Octanoyl-[Dab]T[Dab][Dab][Dab](Arg)[dF]L[Dab][Dab]T; lactam 4-C) | >32 | >32 | > 32 | > 32 | > 32 | > 32 | > 32 | > 32 | > 300 | 
CCCCCCCC(=O)N[C@@H](CCN)C(=O)N[C@H](C(=O)N[C@@H](CCN)C(=O)N[C@H]1CCNC(=O)[C@H]([C@@H](C)O)NC(=O)[C@H](CCN)NC(=O)[C@H](CCCNC(=N)N)NC(=O)[C@H](CC(C)C)NC(=O)[C@@H](Cc2ccccc2)NC(=O)[C@H](CCN)NC1=O)[C@@H](C)O [Compound 26] | >32 | >32 | > 32 | > 32 | > 32 |  | > 32 |  |  | 
CCCCCCCC(=O)N[C@@H](CCN)C(=O)N[C@H](C(=O)N[C@@H](CCN)C(=O)N[C@H]1CCNC(=O)[C@H]([C@@H](C)O)NC(=O)[C@H](CCCNC(=N)N)NC(=O)[C@H](CCN)NC(=O)[C@H](CC(C)C)NC(=O)[C@@H](Cc2ccccc2)NC(=O)[C@H](CCN)NC1=O)[C@@H](C)O [Compound 21] (Octanoyl-[Dab]T[Dab][Dab][Dab][dF]L[Dab]RT; lactam 4-C) | >32 | >32 | > 32 | > 32 | > 32 | > 32 | > 32 | > 32 | > 300 | > 32
